Results published in patent US4241069A, “3-Methylene flavanones and 3-methylene chromanones” (Miles Laboratories, Inc., priority 1979, dated 1980).
Converted amounts (≈) assume the structure as drawn.

How the values were obtained:
A. fumigatus NRRL 163 = assay: MIC, agar incorporation method; type: cell-based; settings: Aspergillus fumigatus, NRRL163, NRRL 163; 32° C., 48-72 hours; read-out: Minimal Inhibitory Concentration
Experimental: (§1) The compounds of the present invention were tested for their ability to inhibit the growth of microorganisms by in vitro tests. Generally the in vitro tests involve growing representative microorganisms under conditions favorable to such growth and measuring the effectiveness of one or more compounds in inhibiting or destroying the growth of the microorganisms. The microorganisms used include representative bacteria, fungi and yeasts.
(§2) A representative selection of the test microorganisms were cultured in a nutrient broth, such as, for example, Eugon, commercially available from Difco Laboratories, Detroit, Michigan. Bacteria and Candida species were cultured for 24 hours at 32°-37° C. and fungi were cultured for approximately one week at 32° C. Inocula were prepared by suspending the growth or spores from a slant culture in sufficient sterile normal (0.9 percent) saline or Eugon broth, to yield cell or spore concentrations of 1,000,000 cells per milliliter. Anaerobic bacteria were cultured for 48-72 hours at 32°-37° C. in a thioglycollate containing medium, for example, Fluid Thioglycollate medium or NIH thioglycollate broth, commercially available from Difco Laboratories.
(§3) The compounds of the present invention were tested for activity against bacteria, yeasts and fungi by the agar incorporation method described below. MA 1347, 3-(dimethylaminomethyl)flavanone (disclosed in U.S. Pat. No. 3,753,985) was used as a comparative standard along with controls for each solvent system used.
(§4) A series of agar plates containing two-fold dilutions of each compound to be tested, ranging in concentration from 100 to 3.1 mcg/ml of agar medium was prepared. Aliquots of each concentration (100, 50, 25, 12.5, 6.2, and 3.1) prepared in N,N-dimethylformamide or 50 percent aqueous DMF were added to liquid Eugon agar at 48° C. (one part test solution to 100 parts agar). In some cases, tests with further dilutions to 0.125 mcg/ml were conducted. The agar medium, containing the 3-methylene flavanone or chromanone compound to be tested, was then dispensed into petri dishes and allowed to solidify. The solidified plates were kept overnight at room temperatures to dry the surface of the agar.
(§5) The agar plates were then inoculated with a drop of the standardized cell or spore suspension. Inoculated plates were incubated at 32° C. The inhibition end-point or minimum inhibitory concentration (MIC) shown in Table D represent the lowest concentration of test compound which inhibited the growth of the microorganism. Visual determination of growth inhibition was used. Bacteria and yeast end-points were determined after 24 hours incubation; molds, dermatophytes and anaerobes after 48-72 hours incubation. MIC values shown as ranges represent the extremes found in repeat assays. Virtually all such values were written plus or minus one dilution, the accepted variation of a two-fold dilution assay.

A. fumigatus NRRL 165 = assay: MIC, agar incorporation method; type: cell-based; settings: Aspergillus fumigatus, NRRL165, 32° C., 48-72 hours, read-out: Minimal Inhibitory Concentration
Experimental: as §1, §2, §3, §4, §5

[1] = system: Aspergillus niger ATCC 16404; assay: MIC, agar incorporation method; type: cell-based; settings: ATCC16404, 32° C., 48-72 hours, read-out: Minimal Inhibitory Concentration
Experimental: as §1, §2, §3, §4, §5

C. albicans NRRL Y-477 = assay: MIC, agar incorporation method; type: cell-based; settings: Candida albicans, NRRLY477, 32° C., 24 hours, read-out: Minimal Inhibitory Concentration
Experimental: as §1, §2, §3, §4, §5

C. guillermondii VM 42 = assay: MIC, agar incorporation method; type: cell-based; settings: 32° C., 24 hours; read-out: Minimal Inhibitory Concentration
Experimental: as §1, §2, §3, §4, §5

C. krusei VM 29B = assay: MIC, agar incorporation method; type: cell-based; settings: Pichia kudriavzevii, VM29B; 32° C., 24 hours; read-out: Minimal Inhibitory Concentration
Experimental: as §1, §2, §3, §4, §5

C. tropicalis NRRL Y1410 = assay: MIC, agar incorporation method; type: cell-based; settings: Candida tropicalis, NRRLY1410; 32° C., 24 hours; read-out: Minimal Inhibitory Concentration
Experimental: as §1, §2, §3, §4, §5

[2] = system: Candida albicans ATCC 10231; assay: MIC, agar incorporation method; type: cell-based; settings: ATCC10231, C. albicans ATCC 10231, 32° C., 24 hours, read-out: Minimal Inhibitory Concentration
Experimental: as §1, §2, §3, §4, §5

[3] = system: Escherichia coli ATCC 8739; assay: MIC, agar incorporation method; type: cell-based; settings: ATCC8739, 32° C., 24 hours, read-out: Minimal Inhibitory Concentration
Experimental: as §1, §2, §3, §4, §5

[4] = system: Microsporum gypseum ATCC 14683; assay: MIC, agar incorporation method; type: cell-based; settings: Nannizzia gypsea, ATCC14683, 32° C., 48-72 hours; read-out: Minimal Inhibitory Concentration
Experimental: as §1, §2, §3, §4, §5

[5] = system: Pseudomonas aeruginosa ATCC 14502; assay: MIC, agar incorporation method; type: cell-based; settings: ATCC14502, 32° C., 24 hours, read-out: Minimal Inhibitory Concentration
Experimental: as §1, §2, §3, §4, §5

[6] = system: Staphylococcus aureus ATCC 6538; assay: MIC, agar incorporation method; type: cell-based; settings: Staphylococcus aureus, ATCC6538; S. aureus ATCC 6538; 32° C., 24 hours; read-out: Minimal Inhibitory Concentration
Experimental: as §1, §2, §3, §4, §5

[7] = system: Streptococcus faecalis ATCC 10541; assay: MIC, agar incorporation method; type: cell-based; settings: Enterococcus faecalis, ATCC10541; 32° C., 24 hours; read-out: Minimal Inhibitory Concentration
Experimental: as §1, §2, §3, §4, §5

T. mentagrophytes CDC = assay: MIC, agar incorporation method; type: cell-based; settings: Trichophyton mentagrophytes, 32° C., 48-72 hours, read-out: Minimal Inhibitory Concentration
Experimental: as §1, §2, §3, §4, §5

T. mentagrophytes TM-2 = assay: MIC, agar incorporation method; type: cell-based; settings: Trichophyton mentagrophytes, TM2, 32° C., 48-72 hours, read-out: Minimal Inhibitory Concentration
Experimental: as §1, §2, §3, §4, §5

T. rubrum ATCC 10218 = assay: MIC, agar incorporation method; type: cell-based; settings: Trichophyton rubrum, ATCC10218; 32° C., 48-72 hours; read-out: Minimal Inhibitory Concentration
Experimental: as §1, §2, §3, §4, §5

[8] = system: Trichophyton mentagrophytes ATCC 4807; assay: MIC, agar incorporation method; type: cell-based; settings: ATCC4807, 32° C., 48-72 hours, read-out: Minimal Inhibitory Concentration
Experimental: as §1, §2, §3, §4, §5

S. aureus NRRL B2747 [9] = assay: MIC, agar incorporation method; type: cell-based, Staphylococcus aureus; settings: Staphylococcus aureus, NRRLB2747, 32° C., 24 hours, read-out: Minimal Inhibitory Concentration
Experimental: as §1, §2, §3, §4, §5

[10] = system: Sarcina subflava ATCC 7468; assay: MIC, agar incorporation method; type: cell-based; settings: ATCC7468, 32° C., 24 hours, read-out: Minimal Inhibitory Concentration
Experimental: as §1, §2, §3, §4, §5

T. tonsurans ATCC 10217 = assay: MIC, agar incorporation method; type: cell-based; settings: Trichophyton tonsurans, ATCC10217; 32° C., 48-72 hours; read-out: Minimal Inhibitory Concentration
Experimental: as §1, §2, §3, §4, §5

[11] = system: Bacteriodides fragilis ATCC 8482; assay: MIC, agar incorporation method, anaerobic; type: cell-based; settings: 48 hours at 35° C., GasPak Anaerobic Jar, read-out: Minimal Inhibitory Concentration
Experimental: as §1, §2, §3, §4, §5
(§6) *Anaerobic: 48 hours incubation at 35° C. GasPak Anaerobic Jar

[12] = system: Clostridium sporogenes ATCC 11437; assay: MIC, agar incorporation method, anaerobic; type: cell-based; settings: ATCC11437, 48 hours at 35° C., GasPak Anaerobic Jar, read-out: Minimal Inhibitory Concentration
Experimental: as §1, §2, §3, §4, §5, §6

[13] = system: Propionobacterium acnes ATCC 6919; assay: MIC, agar incorporation method, anaerobic; type: cell-based; settings: 48 hours at 35° C., GasPak Anaerobic Jar, read-out: Minimal Inhibitory Concentration
Experimental: as §1, §2, §3, §4, §5, §6

S. aureus NRRL B2747 [14] = assay: MIC, agar incorporation method, anaerobic; type: cell-based; settings: Staphylococcus aureus, NRRLB2747, 48 hours at 35° C., GasPak Anaerobic Jar, read-out: Minimal Inhibitory Concentration
Experimental: as §1, §2, §3, §4, §5, §6

Row | Structure (SMILES) | MIC (A. fumigatus NRRL 163) [µg/mL] | MIC (A. fumigatus NRRL 165) [µg/mL] | MIC [1] [µg/mL] | MIC (C. albicans NRRL Y-477) [µg/mL] | MIC (C. guillermondii VM 42) [µg/mL] | MIC (C. krusei VM 29B) [µg/mL] | MIC (C. tropicalis NRRL Y1410) [µg/mL] | MIC [2] [µg/mL] | MIC [3] [µg/mL] | MIC [4] [µg/mL] | MIC [5] [µg/mL] | MIC [6] [µg/mL] | MIC [7] [µg/mL] | MIC (T. mentagrophytes CDC) [µg/mL] | MIC (T. mentagrophytes TM-2) [µg/mL] | MIC (T. rubrum ATCC 10218) [µg/mL] | MIC [8] [µg/mL] | MIC (S. aureus NRRL B2747 [9]) [µg/mL] | MIC [10] [µg/mL] | MIC (T. tonsurans ATCC 10217) [µg/mL] | also measured
1 | C=C1C(=O)c2cc(Br)ccc2OC1c1ccc(Br)cc1 (stereo not shown) [Ex. 17, 4',6-dibromo-3-methylene flavanone] | > 100 | > 100 | > 100 | 100 (≈ 254 µM) | > 100 | 100 (≈ 254 µM) | > 100 | 100 (≈ 254 µM) | > 100 | 50 (≈ 127 µM) | > 100 | 6.2 (≈ 15.7 µM) | > 100 | 50 (≈ 127 µM) | 25 (≈ 63.4 µM) | 25 (≈ 63.4 µM) | 12.5 (≈ 31.7 µM) | 12.5 (≈ 31.7 µM) |  |  | 
2 | C=C1C(=O)c2ccccc2OC1(c1ccccc1)c1cccs1 (stereo not shown) [Ex. 21, 3-Methylene-2-(2-thienyl) flavanone] | 100 (≈ 314 µM) |  | > 100 | > 100 | > 100 | > 100 | > 100 | > 100 | > 100 | 6.2 (≈ 19.5 µM) | > 100 | 0.5 (≈ 1.57 µM) | 1 (≈ 3.14 µM) | 12.5 (≈ 39.3 µM) | 12.5 (≈ 39.3 µM) |  | 12.5 (≈ 39.3 µM) | 0.5 (≈ 1.57 µM) | 1.56 (≈ 4.9 µM) | 6.2 (≈ 19.5 µM) | MIC [11]: 0.25 µg/mL (≈ 0.785 µM); MIC [12]: 0.5 µg/mL (≈ 1.57 µM); MIC [13]: 1 µg/mL (≈ 3.14 µM); MIC (S. aureus NRRL B2747 [14]): 1.56 µg/mL (≈ 4.9 µM)
3 | C=C1C(=O)c2ccccc2OC1(c1ccccc1)c1ccncc1 (stereo not shown) [Ex. 22, 3-Methylene-2-(4-pyridyl) flavanone] | 25 (≈ 79.8 µM) |  | > 100 | 100 (≈ 319 µM) | > 100 | 100 (≈ 319 µM) | > 100 | 100 (≈ 319 µM) | > 100 | 12.5 (≈ 39.9 µM) | > 100 | 0.78 (≈ 2.49 µM) | 3.1 (≈ 9.89 µM) | 25 (≈ 79.8 µM) | 12.5 (≈ 39.9 µM) |  | 12.5 (≈ 39.9 µM) | 0.78 (≈ 2.49 µM) | 3.1 (≈ 9.89 µM) | 6.2 (≈ 19.8 µM) | MIC [11]: 0.25 µg/mL (≈ 0.798 µM); MIC [12]: 0.5 µg/mL (≈ 1.6 µM); MIC [13]: 1 µg/mL (≈ 3.19 µM); MIC (S. aureus NRRL B2747 [14]): 1 µg/mL (≈ 3.19 µM)
4 | C=C1C(=O)c2ccccc2OC1c1ccc2ccccc2c1 (stereo not shown) [compound 24, 3-methylene-2-(2-naphthyl) chromanone] |  | > 100 | > 100 | 100 (≈ 349 µM) | > 100 | 25 (≈ 87.3 µM) | > 100 | > 100 | > 100 | 12.5 (≈ 43.7 µM) | > 100 | ≤ 3.1 | 50 (≈ 175 µM) | 25 (≈ 87.3 µM) | 12.5 (≈ 43.7 µM) | 6.2 (≈ 21.7 µM) | 12.5 (≈ 43.7 µM) | 6.2 (≈ 21.7 µM) |  |  | 
